Test: xn = mol fraction of the nth substance listed
Details: 101.3 kPa, Liquid; for speed of sound: Sing-around technique in a fixed-path interferometer; for mass density: Vibrating tube method

CCOCCOCCOCC [diethylene glycol diethyl ether] + CCCCCCCCCCO
Details | mass density [kg/m3] | speed of sound [m/s]
293.15 K, x2 = 0.0632 | 901.86 | 1267.1
293.15 K, x2 = 0.1084 | 897.94 | 1272.6
293.15 K, x2 = 0.2052 | 889.79 | 1284.5
293.15 K, x2 = 0.294 | 882.49 | 1295.5
293.15 K, x2 = 0.393 | 874.57 | 1308.1
293.15 K, x2 = 0.4943 | 866.66 | 1321.4
293.15 K, x2 = 0.543 | 862.92 | 1327.9
293.15 K, x2 = 0.5932 | 859.11 | 1334.7
293.15 K, x2 = 0.6872 | 852.12 | 1348.1
293.15 K, x2 = 0.7863 | 844.92 | 1363
293.15 K, x2 = 0.8872 | 837.76 | 1378.8
293.15 K, x2 = 0.9441 | 833.82 | 1388.1
298.15 K, x2 = 0.0605 | 897.98 | 1247.8
298.15 K, x2 = 0.111 | 893.68 | 1254.1
298.15 K, x2 = 0.1588 | 889.69 | 1260.1
298.15 K, x2 = 0.2062 | 885.79 | 1266.1
298.15 K, x2 = 0.302 | 878.08 | 1278.3
298.15 K, x2 = 0.3947 | 870.77 | 1290.4
298.15 K, x2 = 0.504 | 862.39 | 1305
298.15 K, x2 = 0.592 | 855.8 | 1317.3
298.15 K, x2 = 0.6553 | 851.16 | 1326.4
298.15 K, x2 = 0.7443 | 844.72 | 1339.5
298.15 K, x2 = 0.7923 | 841.32 | 1347
298.15 K, x2 = 0.8362 | 838.23 | 1353.8
298.15 K, x2 = 0.8836 | 834.93 | 1361.4
298.15 K, x2 = 0.94 | 831.05 | 1370.4
303.15 K, x2 = 0.0605 | 893 | 1229.6
303.15 K, x2 = 0.1016 | 889.54 | 1234.8
303.15 K, x2 = 0.154 | 885.23 | 1241.6
303.15 K, x2 = 0.2064 | 880.99 | 1248.3
303.15 K, x2 = 0.2953 | 873.94 | 1260
303.15 K, x2 = 0.3846 | 867.02 | 1271.7
303.15 K, x2 = 0.5006 | 858.29 | 1287.6
303.15 K, x2 = 0.5369 | 855.6 | 1292.7
303.15 K, x2 = 0.6486 | 847.46 | 1308.7
303.15 K, x2 = 0.7409 | 840.9 | 1322.6
303.15 K, x2 = 0.7915 | 837.36 | 1330.4
303.15 K, x2 = 0.8318 | 834.56 | 1336.7
303.15 K, x2 = 0.8856 | 830.89 | 1345.4
303.15 K, x2 = 0.9364 | 827.44 | 1353.5

CCOCCOCCOCC [diethylene glycol diethyl ether] + CCCCO
Details | mass density [kg/m3] | speed of sound [m/s]
293.15 K, x2 = 0.1284 | 901.3 | 1262.2
293.15 K, x2 = 0.2205 | 896.11 | 1263.3
293.15 K, x2 = 0.319 | 889.85 | 1264.1
293.15 K, x2 = 0.3623 | 886.86 | 1264.3
293.15 K, x2 = 0.4157 | 882.92 | 1264.5
293.15 K, x2 = 0.4529 | 879.96 | 1264.4
293.15 K, x2 = 0.4963 | 876.35 | 1264.4
293.15 K, x2 = 0.5481 | 871.71 | 1264.3
293.15 K, x2 = 0.6523 | 861.3 | 1263.6
293.15 K, x2 = 0.7018 | 855.73 | 1263.3
293.15 K, x2 = 0.7934 | 844.15 | 1262.1
293.15 K, x2 = 0.8942 | 829.14 | 1260.2
293.15 K, x2 = 0.9397 | 821.36 | 1258.9
298.15 K, x2 = 0.1245 | 896.77 | 1242.5
298.15 K, x2 = 0.2149 | 891.76 | 1243.8
298.15 K, x2 = 0.3175 | 885.38 | 1244.9
298.15 K, x2 = 0.4078 | 879 | 1245.5
298.15 K, x2 = 0.4543 | 875.4 | 1245.6
298.15 K, x2 = 0.5047 | 871.25 | 1245.7
298.15 K, x2 = 0.5543 | 866.84 | 1245.7
298.15 K, x2 = 0.6137 | 861.13 | 1245.5
298.15 K, x2 = 0.6973 | 852.18 | 1245.3
298.15 K, x2 = 0.7951 | 840.07 | 1244.5
298.15 K, x2 = 0.8466 | 832.8 | 1243.9
298.15 K, x2 = 0.9449 | 816.86 | 1241.7
303.15 K, x2 = 0.0738 | 894.47 | 1223.5
303.15 K, x2 = 0.1419 | 890.96 | 1224.8
303.15 K, x2 = 0.218 | 886.73 | 1225.9
303.15 K, x2 = 0.302 | 881.57 | 1227
303.15 K, x2 = 0.3764 | 876.51 | 1227.7
303.15 K, x2 = 0.5002 | 866.9 | 1228.3
303.15 K, x2 = 0.5541 | 862.16 | 1228.4
303.15 K, x2 = 0.6056 | 857.29 | 1228.5
303.15 K, x2 = 0.6997 | 847.32 | 1228.4
303.15 K, x2 = 0.7961 | 835.44 | 1227.9
303.15 K, x2 = 0.8493 | 827.96 | 1227.4
303.15 K, x2 = 0.8896 | 821.8 | 1226.8
303.15 K, x2 = 0.9431 | 812.86 | 1225.8

CCOCCOCCOCC [diethylene glycol diethyl ether] + CO
Details | mass density [kg/m3] | speed of sound [m/s]
293.15 K, x2 = 0.1141 | 904.9 | 1259.4
293.15 K, x2 = 0.1553 | 904.05 | 1259.4
293.15 K, x2 = 0.1987 | 903.07 | 1259.2
293.15 K, x2 = 0.249 | 901.79 | 1258.6
293.15 K, x2 = 0.2972 | 900.38 | 1257.7
293.15 K, x2 = 0.3651 | 898.01 | 1255.9
293.15 K, x2 = 0.3841 | 897.27 | 1255.2
293.15 K, x2 = 0.4206 | 895.72 | 1253.7
293.15 K, x2 = 0.4696 | 893.32 | 1251.3
293.15 K, x2 = 0.5133 | 890.89 | 1248.6
293.15 K, x2 = 0.5624 | 887.61 | 1244.7
293.15 K, x2 = 0.6126 | 883.69 | 1240
293.15 K, x2 = 0.6545 | 879.81 | 1235.1
293.15 K, x2 = 0.698 | 875.07 | 1229
293.15 K, x2 = 0.7575 | 867.11 | 1218.6
293.15 K, x2 = 0.8037 | 859.25 | 1208.1
293.15 K, x2 = 0.8469 | 850.24 | 1196
293.15 K, x2 = 0.9023 | 835.03 | 1175.4
293.15 K, x2 = 0.9467 | 818.74 | 1153.6
298.15 K, x2 = 0.1296 | 900 | 1240
298.15 K, x2 = 0.1589 | 899.4 | 1239.9
298.15 K, x2 = 0.1917 | 898.67 | 1239.7
298.15 K, x2 = 0.2627 | 896.83 | 1239
298.15 K, x2 = 0.2904 | 896.02 | 1238.5
298.15 K, x2 = 0.3505 | 894.01 | 1237.1
298.15 K, x2 = 0.3925 | 892.41 | 1235.8
298.15 K, x2 = 0.4241 | 891.01 | 1234.4
298.15 K, x2 = 0.4639 | 889.09 | 1232.6
298.15 K, x2 = 0.5181 | 886.01 | 1229.3
298.15 K, x2 = 0.5637 | 882.97 | 1225.8
298.15 K, x2 = 0.6132 | 879.12 | 1221.2
298.15 K, x2 = 0.6207 | 878.44 | 1220.4
298.15 K, x2 = 0.6959 | 870.83 | 1210.9
298.15 K, x2 = 0.7434 | 864.68 | 1203
298.15 K, x2 = 0.8007 | 855.37 | 1190.8
298.15 K, x2 = 0.8481 | 845.46 | 1177.7
298.15 K, x2 = 0.9005 | 831.08 | 1158.6
298.15 K, x2 = 0.9476 | 813.97 | 1135.9
303.15 K, x2 = 0.1058 | 895.27 | 1221.5
303.15 K, x2 = 0.1571 | 894.27 | 1221.5
303.15 K, x2 = 0.1991 | 893.31 | 1221.4
303.15 K, x2 = 0.2309 | 892.58 | 1220.9
303.15 K, x2 = 0.2886 | 890.89 | 1220.4
303.15 K, x2 = 0.3249 | 889.71 | 1219.5
303.15 K, x2 = 0.3748 | 887.88 | 1218.2
303.15 K, x2 = 0.4216 | 885.91 | 1216.5
303.15 K, x2 = 0.473 | 883.4 | 1214.1
303.15 K, x2 = 0.5164 | 880.9 | 1211.5
303.15 K, x2 = 0.5681 | 877.47 | 1207.7
303.15 K, x2 = 0.6092 | 874.33 | 1204.1
303.15 K, x2 = 0.6548 | 870.07 | 1199
303.15 K, x2 = 0.6984 | 865.35 | 1193.3
303.15 K, x2 = 0.7448 | 859.28 | 1185.6
303.15 K, x2 = 0.8012 | 849.99 | 1173.9
303.15 K, x2 = 0.8484 | 840.19 | 1161.1
303.15 K, x2 = 0.9007 | 825.94 | 1142.6
303.15 K, x2 = 0.9489 | 808.25 | 1119.6

From the NIST ThermoML archive (doi:10.1016/j.jct.2012.12.007)
